Data set [1] has as its system Hepatotoxicity. Description: Literature-mined compound from Fourches et al multi-species drug-induced liver injury (DILI) dataset, effect in non-rodents.
In data set [2] the test system is Hepatotoxicity. In words: Literature-mined compound from Fourches et al multi-species drug-induced liver injury (DILI) dataset, effect in humans. The note with it: human.
In data set [3] the test system is Hepatotoxicity. Description: Literature-mined compound from Fourches et al multi-species drug-induced liver injury (DILI) dataset, effect in rodents. Conditions: rodentia.

Turning to `COc1c(C)c2c(c(O)c1C/C=C(\C)CCC(=O)O)C(=O)OC2` [MYCOPHENOLIC ACID], the Hepatotoxicity result is listed as “no drug-induced liver injury reported” in the data set on Hepatotoxicity [1], “drug-induced liver injury reported” in the data set with Hepatotoxicity [2] and “drug-induced liver injury reported” in the data set with Hepatotoxicity [3].

`Oc1cc(O)c2c(c1)O[C@H](c1ccc(O)c(O)c1)[C@@H](O)C2` [CATECHIN]: the Hepatotoxicity result in the data set on Hepatotoxicity [1], with Hepatotoxicity [2] and in the data set on Hepatotoxicity [3] was “drug-induced liver injury reported” throughout.

Take `Cc1cc2c(C(C)C)c(O)c(O)c(C=O)c2c(O)c1-c1c(C)cc2c(C(C)C)c(O)c(O)c(C=O)c2c1O` [GOSSYPOL]: the Hepatotoxicity result in the data set with Hepatotoxicity [1] is “no drug-induced liver injury reported”; in the data set on Hepatotoxicity [2], “drug-induced liver injury reported”; with Hepatotoxicity [3], “drug-induced liver injury reported”.

With `FC(F)OC(Cl)C(F)(F)F` (configuration not stated) [ISOFLURANE], the Hepatotoxicity entry with Hepatotoxicity [1], in the data set on Hepatotoxicity [2] and in the data set on Hepatotoxicity [3] was “drug-induced liver injury reported” throughout.

Consider `O=C(Cc1cccs1)N[C@@H]1C(=O)N2C(C(=O)[O-])=C(C[n+]3ccccc3)CS[C@H]12` [CEPHALORIDINE], for which the Hepatotoxicity entry is “no drug-induced liver injury reported” in the data set with Hepatotoxicity [1], “drug-induced liver injury reported” in the data set on Hepatotoxicity [2] and “no drug-induced liver injury reported” with Hepatotoxicity [3].

As for POLYETHYLENE GLYCOL, the Hepatotoxicity result with Hepatotoxicity [1] was “no drug-induced liver injury reported”; with Hepatotoxicity [2] it was “drug-induced liver injury reported”; in the data set with Hepatotoxicity [3] it was “drug-induced liver injury reported”.

For the compound `COCCCC/C(=N\OCCN)c1ccc(C(F)(F)F)cc1` [FLUVOXAMINE], the Hepatotoxicity result with Hepatotoxicity [1] was “no drug-induced liver injury reported”; in the data set with Hepatotoxicity [2] it was “drug-induced liver injury reported”; in the data set on Hepatotoxicity [3], “drug-induced liver injury reported”.

On to `CCCCOCCOCCOCc1cc2c(cc1CCC)OCO2` [PIPERONYL BUTOXIDE], for which the values for the Hepatotoxicity result in the data set with Hepatotoxicity [1] (Liver), in the data set on Hepatotoxicity [2] (Liver) and with Hepatotoxicity [3] (Liver) were “no drug-induced liver injury reported”, “no drug-induced liver injury reported” and “drug-induced liver injury reported”, respectively.

On to OXALIPLATIN, for which the Hepatotoxicity result is “no drug-induced liver injury reported” in the data set with Hepatotoxicity [1], “drug-induced liver injury reported” with Hepatotoxicity [2] and “no drug-induced liver injury reported” in the data set with Hepatotoxicity [3].

Turning to `O=[N+]([O-])O[C@@H]1CO[C@H]2[C@@H]1OC[C@@H]2O` [ISOSORBIDE MONONITRATE], the Hepatotoxicity result with Hepatotoxicity [1] is on record as “no drug-induced liver injury reported”; with Hepatotoxicity [2], “drug-induced liver injury reported”; in the data set with Hepatotoxicity [3], “no drug-induced liver injury reported”.

Regarding VITAMIN E, the Hepatotoxicity entry in the data set on Hepatotoxicity [1], in the data set with Hepatotoxicity [2] and with Hepatotoxicity [3] was “drug-induced liver injury reported” each time.

With `CSCC[C@H](N)C(=O)O` [METHIONINE], the Hepatotoxicity entry in the data set on Hepatotoxicity [1] (Liver), in the data set on Hepatotoxicity [2] (Liver) and in the data set on Hepatotoxicity [3] (Liver) was “drug-induced liver injury reported” each time.

Consider `C[C@]12CCC(=O)C=C1CC[C@@H]1[C@@H]2[C@@H](O)C[C@@]2(C)[C@H]1CC[C@]2(O)C(=O)CO` [HYDROCORTISONE], for which the Hepatotoxicity entry with Hepatotoxicity [1], with Hepatotoxicity [2] and in the data set on Hepatotoxicity [3] was “drug-induced liver injury reported” each time.

With `COCCOC(=O)C1=C(C)NC(C)=C(C(=O)OC(C)C)C1c1cccc([N+](=O)[O-])c1` (configuration not stated) [NIMODIPINE], the values for the Hepatotoxicity entry with Hepatotoxicity [1], with Hepatotoxicity [2] and with Hepatotoxicity [3] were “no drug-induced liver injury reported”, “drug-induced liver injury reported” and “drug-induced liver injury reported”, respectively.

Take `NC[C@@H]1O[C@H](O[C@H]2[C@@H](O)[C@H](O[C@@H]3[C@@H](O)[C@H](N)C[C@H](N)[C@H]3O[C@H]3O[C@H](CN)[C@@H](O)[C@H](O)[C@H]3N)O[C@@H]2CO)[C@H](N)[C@@H](O)[C@@H]1O` [FRAMYCETIN]: the values for the Hepatotoxicity result in the data set with Hepatotoxicity [1] (Liver), in the data set on Hepatotoxicity [2] (Liver) and in the data set with Hepatotoxicity [3] (Liver) were “no drug-induced liver injury reported”, “no drug-induced liver injury reported” and “drug-induced liver injury reported”, respectively.

`CCCCC(=O)N(Cc1ccc(-c2ccccc2-c2nnn[nH]2)cc1)[C@H](C(=O)O)C(C)C`: the results for the Hepatotoxicity entry in the data set with Hepatotoxicity [1], in the data set with Hepatotoxicity [2] and with Hepatotoxicity [3] were “no drug-induced liver injury reported”, “drug-induced liver injury reported” and “drug-induced liver injury reported”, respectively.

For the compound `CC(O)C(=O)O` (configuration not stated) [LACTIC ACID], the Hepatotoxicity entry with Hepatotoxicity [1], with Hepatotoxicity [2] and in the data set with Hepatotoxicity [3] was “drug-induced liver injury reported” in each case.

On to `Nc1ncnc2c1ncn2[C@@H]1O[C@H](CO)[C@@H](O)[C@H]1O` [ADENOSINE], for which the Hepatotoxicity entry in the data set with Hepatotoxicity [1], in the data set on Hepatotoxicity [2] and with Hepatotoxicity [3] was “drug-induced liver injury reported” in each case.

As to `C=CC[C@@H]1/C=C(\C)C[C@H](C)C[C@H](OC)[C@H]2O[C@@](O)(C(=O)C(=O)N3CCCC[C@H]3C(=O)O[C@H](/C(C)=C/[C@@H]3CC[C@@H](O)[C@H](OC)C3)[C@H](C)[C@@H](O)CC1=O)[C@H](C)C[C@@H]2OC` [TACROLIMUS ANHYDROUS], the Hepatotoxicity result was “no drug-induced liver injury reported” in the data set with Hepatotoxicity [1], “drug-induced liver injury reported” in the data set with Hepatotoxicity [2] and “drug-induced liver injury reported” in the data set with Hepatotoxicity [3].

`CC(C)NCC1CCc2cc(CO)c([N+](=O)[O-])cc2N1` (configuration not stated) [OXAMNIQUINE]: the Hepatotoxicity result with Hepatotoxicity [1] is “no drug-induced liver injury reported”; in the data set on Hepatotoxicity [2], “no drug-induced liver injury reported”; with Hepatotoxicity [3] it was “drug-induced liver injury reported”.

Consider `Nc1ncnc2c1ncn2[C@@H]1O[C@H](COP(=O)(O)OP(=O)(O)OP(=O)(O)O)[C@@H](O)[C@H]1O` [ADENOSINE TRIPHOSPHATE], for which the figures for the Hepatotoxicity result with Hepatotoxicity [1], with Hepatotoxicity [2] and in the data set with Hepatotoxicity [3] were “no drug-induced liver injury reported”, “no drug-induced liver injury reported” and “drug-induced liver injury reported”, respectively.

Consider `ClC(Cl)=C(Cl)Cl` [TETRACHLOROETHYLENE], for which the values for the Hepatotoxicity entry in the data set on Hepatotoxicity [1], in the data set with Hepatotoxicity [2] and in the data set with Hepatotoxicity [3] were “no drug-induced liver injury reported”, “drug-induced liver injury reported” and “drug-induced liver injury reported”, respectively.

As for `CN[C@@H](C)[C@H](O)c1ccccc1` [EPHEDRINE], the Hepatotoxicity entry is on record as “no drug-induced liver injury reported” in the data set with Hepatotoxicity [1], “drug-induced liver injury reported” in the data set on Hepatotoxicity [2] and “no drug-induced liver injury reported” in the data set on Hepatotoxicity [3].

On to `O=[N+]([O-])O[C@H]1CO[C@H]2[C@@H]1OC[C@H]2O[N+](=O)[O-]` [ISOSORBIDE DINITRATE], for which the Hepatotoxicity entry in the data set with Hepatotoxicity [1] is on record as “no drug-induced liver injury reported”; in the data set with Hepatotoxicity [2], “drug-induced liver injury reported”; in the data set on Hepatotoxicity [3], “drug-induced liver injury reported”.

(Values after ChEMBL document CHEMBL1697731, “Cheminformatics analysis of assertions mined from literature that describe drug-induced liver injury in different species” (Chem Res Toxicol, 2010).)
